Molecules are shown by their SMILES. Where a name gives a salt, the structure may show the parent alone. Bounds are passed on as bounds.

USP7, sequence (Q93009 whole entry): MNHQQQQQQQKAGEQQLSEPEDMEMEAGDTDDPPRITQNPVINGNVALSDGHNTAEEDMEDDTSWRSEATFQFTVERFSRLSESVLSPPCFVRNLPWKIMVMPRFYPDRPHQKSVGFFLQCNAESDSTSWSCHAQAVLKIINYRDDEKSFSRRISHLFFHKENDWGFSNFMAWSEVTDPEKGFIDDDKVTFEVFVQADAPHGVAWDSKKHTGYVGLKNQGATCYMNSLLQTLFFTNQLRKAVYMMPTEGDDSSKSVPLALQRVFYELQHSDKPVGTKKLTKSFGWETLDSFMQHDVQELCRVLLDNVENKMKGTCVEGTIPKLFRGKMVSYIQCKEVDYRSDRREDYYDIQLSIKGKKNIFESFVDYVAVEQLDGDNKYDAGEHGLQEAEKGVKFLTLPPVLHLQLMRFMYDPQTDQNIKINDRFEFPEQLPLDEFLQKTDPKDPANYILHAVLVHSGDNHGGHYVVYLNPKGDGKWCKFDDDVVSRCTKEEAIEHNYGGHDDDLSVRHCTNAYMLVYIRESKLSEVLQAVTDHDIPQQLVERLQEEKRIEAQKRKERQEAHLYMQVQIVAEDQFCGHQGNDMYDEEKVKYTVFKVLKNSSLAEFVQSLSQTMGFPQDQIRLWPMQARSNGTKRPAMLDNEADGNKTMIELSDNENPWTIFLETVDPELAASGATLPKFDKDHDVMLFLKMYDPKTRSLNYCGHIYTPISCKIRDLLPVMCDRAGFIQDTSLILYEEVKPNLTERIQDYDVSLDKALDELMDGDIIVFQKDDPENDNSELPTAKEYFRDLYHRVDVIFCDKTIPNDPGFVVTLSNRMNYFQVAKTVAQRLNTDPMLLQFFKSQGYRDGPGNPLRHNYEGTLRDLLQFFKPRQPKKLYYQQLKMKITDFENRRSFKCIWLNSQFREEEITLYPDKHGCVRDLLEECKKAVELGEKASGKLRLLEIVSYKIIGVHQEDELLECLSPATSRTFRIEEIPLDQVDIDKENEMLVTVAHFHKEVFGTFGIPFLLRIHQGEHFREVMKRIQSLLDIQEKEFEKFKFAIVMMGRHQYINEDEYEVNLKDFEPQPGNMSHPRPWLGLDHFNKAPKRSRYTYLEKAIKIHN

One assay addresses USP7 (Homo sapiens (Human), UniProt Q93009). In words: USP7 fluorescence polarisation (FP) biochemical assay, ubiquitin-Lys-TAMRA substrate.
Conditions: not given
As for the experimental part:
Measurement of USP7 Inhibitory Activity
USP7 activity was monitored in a fluorescence polarisation (FP) homogeneous assay using the isopeptide ubiquitin-Lys-TAMRA substrate (U-558, Boston Biochem). Full-length USP7 was purchased from Boston Biochem (His6-USP7FL, E-519). Unless otherwise stated, all other reagents were purchased from Sigma-Aldrich. Enzymatic reactions were conducted in black flat-bottom polystyrene 384-well plates (Nunc) and 15 μL total volume. USP7 (2.5 nM, 5 μL) was incubated in assay buffer (50 mM HEPES (pH 7.2), 150 mM NaCl, 0.5 mM EDTA, 5 mM DTT, 0.05% BSA (w/v), 0.05% CHAPS) in the presence or absence of inhibitor (5 μl). Inhibitors were stored as 10 mM DMSO stocks in an inert environment (low humidity, dark, low oxygen, room temperature) using a Storage Pod System and serial dilutions were prepared in buffer just prior to the assay (from 200 to 0.1 μM, 8 dp curve). […] FP was measured every 15 min over a period of 1.5 h (within the linear range of the assay) using a Synergy 4 plate reader (BioTek) exciting at 530 nm and measuring the amount of parallel and perpendicular light at 575 nm. The FP signal was subsequently normalised to the control without compound present.
On to `C[C@H](CC(=O)N1CCC(O)(Cn2cnc(Nc3ccc4c(c3)C3CCC4N3)cc2=O)CC1)c1ccccc1` (stereo partly drawn) [Example 42, 3-((4-Hydroxy-1-((R)-3-phenylbutanoyl)piperidin-4-yl)methyl)-6-((1,2,3,4-tetrahydro-1,4-epiminonaphthalen-6-yl)amino)pyrimidin-4(3H)-one hydrochloride], for which the IC50 was 250 to 999 nM.

The assay is the same for the next values; noted with them: Table 4, biochemical assay; average of at least duplicate experiments; read-out: USP7 IC50.
Turning to `COCC(CC(=O)N1CCC(O)(Cn2cnc3c(-c4ccc(CN)cc4)n(C)nc3c2=O)CC1)c1ccccc1` (racemic) [Example 53, (R,S)-3-(4-(Aminomethyl)phenyl)-6-((4-hydroxy-1-(4-methoxy-3-phenylbutanoyl)piperidin-4-yl)methyl)-2-methyl-2H-pyrazolo[4,3-d]pyrimidin-7(6H)-one], the IC50 was below 250 nM.
The same measure, in the same setting: then `Cn1nc2c(=O)n(CC3(O)CCN(C(=O)CCc4ccccc4)CC3)cnc2c1C(F)(F)F` [Example 95, 6-((4-Hydroxy-1-(3-phenylpropanoyl)piperidin-4-yl)methyl)-2-methyl-3-(trifluoromethyl)-2H-pyrazolo[4,3-d]pyrimidin-7(6H)-one], with 1000 to 200000 nM; and `COc1ccc(-n2c(Cl)cc3c(=O)n(CC4(O)CCN(C(=O)C5(C)CC5)CC4)cnc32)cc1OC` [Example 239, 6-Chloro-7-(3,4-dimethoxyphenyl)-3-((4-hydroxy-1-(1-methylcyclopropane-1-carbonyl)piperidin-4-yl)methyl)-3,7-dihydro-4H-pyrrolo[2,3-d]pyrimidin-4-one], with below 250 nM.
Turning to `C[C@H](CC(=O)N1CCC(O)(Cn2cnc(NCCN3CCCCC3)cc2=O)CC1)c1ccccc1` [Example 52, (R)-3-((4-Hydroxy-1-(3-phenylbutanoyl)piperidin-4-yl)methyl)-6-((2-(piperidin-1-yl)ethyl)amino)pyrimidin-4(3H)-one], the IC50 was below 250 nM.
Still for that read-out and setting: for `Cn1nc2c(=O)n(CC3(O)CCN(C(=O)C[C@H](c4ccccc4)C(F)(F)F)CC3)cnc2c1-c1ccc(C2(N)CC2)cc1` [Example 124, (R)-3-(4-(1-Aminocyclopropyl)phenyl)-6-((4-hydroxy-1-(4,4,4-trifluoro-3-phenylbutanoyl)piperidin-4-yl)methyl)-2-methyl-2H-pyrazolo[4,3-d]pyrimidin-7(6H)-one] the value was below 250 nM; for `C[C@H](CC(=O)N1CCC(O)(Cn2cnc(NC[C@@H](C)N3CCCC3)cc2=O)CC1)c1ccccc1` [Example 58, 3-((4-Hydroxy-1-((R)-3-phenylbutanoyl)piperidin-4-yl)methyl)-6-(((R)-2-(pyrrolidin-1-yl)propyl)amino)pyrimidin-4(3H)-one], below 250 nM; for `COc1cc(-n2c(Cl)cc3c(=O)n(CC4(O)CCN(C(=O)c5cnc(C6CC6)o5)CC4)cnc32)ccc1F` [Example 206, 6-Chloro-3-((1-(2-cyclopropyloxazole-5-carbonyl)-4-hydroxypiperidin-4-yl)methyl)-7-(4-fluoro-3-methoxyphenyl)-3H-pyrrolo[2,3-d]pyrimidin-4(7H)-one], below 250 nM.
Same read-out and setting: then `COC[C@H]1CCCN1CCNc1cc(=O)n(CC2(O)CCN(C(=O)C[C@@H](C)c3ccccc3)CC2)cn1` [Example 70, 3-((4-Hydroxy-1-((R)-3-phenylbutanoyl)piperidin-4-yl)methyl)-6-((2-((R)-2-(methoxymethyl)pyrrolidin-1-yl)ethyl)amino)pyrimidin-4(3H)-one], with 1000 to 200000 nM; and `C[C@H](CC(=O)N1CCC(O)(Cn2cnc(NCc3ccc(Cl)cc3)cc2=O)CC1)c1ccccc1` [Example 157, (R)-6-((4-chlorobenzyl)amino)-3-((4-hydroxy-1-(3-phenylbutanoyl)piperidin-4-yl)methyl)pyrimidin-4(3H)-one], with 1000 to 200000 nM; and `Cn1nc2c(=O)n(CC3(O)CCN(C(=O)CC(C4CC4)C4CC4)CC3)cnc2c1-c1ccccc1` [Example 193, 6-((1-(3,3-Dicyclopropylpropanoyl)-4-hydroxypiperidin-4-yl)methyl)-2-methyl-3-phenyl-2H-pyrazolo[4,3-d]pyrimidin-7(6H)-one], with 250 to 999 nM.
On the same count and under the same terms, then `C[C@H](CC(=O)N1CCC(O)(Cn2cnc(/C=C/CN3CC[C@H](N)C3)cc2=O)CC1)c1ccccc1` [Example 56, 6-((E)-3-((S)-3-Aminopyrrolidin-1-yl)prop-1-en-1-yl)-3-((4-hydroxy-1-((R)-3-phenylbutanoyl)piperidin-4-yl)methyl)pyrimidin-4(3H)-one, Formic Acid], with 1000 to 200000 nM.
As to `C[C@H](CC(=O)N1CCC(O)(Cn2cnc(Cl)cc2=O)CC1)c1ccccc1` [Example 1, (R)-6-Chloro-3-((4-hydroxy-1-(3-phenylbutanoyl)piperidin-4-yl)methyl)pyrimidin-4(3H)-one], the IC50 was 1000 to 200000 nM.
Same read-out and setting: then `C[C@H](CC(=O)N1CCC(O)(C(O)c2cnc3ccccn3c2=O)CC1)c1ccccc1` (stereo partly drawn) [Example 101, 3-(Hydroxy(4-hydroxy-1-((R)-3-phenylbutanoyl)piperidin-4-yl)methyl)-4H-pyrido[1,2-a]pyrimidin-4-one], with 1000 to 200000 nM; and `C[C@H](CC(=O)N1CCC(O)(Cn2cnc3c(-c4ccc(C5(N)CCC5)cc4)n(C)nc3c2=O)CC1)c1ccccc1` [Example 182, (R)-3-(4-(1-Aminocyclobutyl)phenyl)-6-((4-hydroxy-1-(3-phenylbutanoyl)piperidin-4-yl)methyl)-2-methyl-2H-pyrazolo[4,3-d]pyrimidin-7(6H)-one], with below 250 nM; and `O=C(C(C1CCC1)C1CCC1)N1CCC(O)(Cn2cnc(NCCN3CCCC3)cc2=O)CC1` [Example 184, 3-((1-(2,2-Dicyclobutylacetyl)-4-hydroxypiperidin-4-yl)methyl)-6-((2-(pyrrolidin-1-yl)ethyl)amino)pyrimidin-4(3H)-one], with 1000 to 200000 nM.
On the same count and under the same terms, for `O=C(CC(C1CC1)C1CC1)N1CCC(O)(Cn2cnc3c(nnn3-c3ccccc3)c2=O)CC1` [Example 187, 6-((1-(3,3-Dicyclopropylpropanoyl)-4-hydroxypiperidin-4-yl)methyl)-3-phenyl-3H-[1,2,3]triazolo[4,5-d]pyrimidin-7(6H)-one] the value was 250 to 999 nM.
On the same count and under the same terms, for `Cc1c(Cl)ncn(CC2(O)CCN(C(=O)C[C@@H](C)c3ccccc3)CC2)c1=O` [Example 44, (R)-6-Chloro-3-((4-hydroxy-1-(3-phenylbutanoyl)piperidin-4-yl)methyl)-5-methylpyrimidin-4(3H)-one] the value was 1000 to 200000 nM; for `CCOC(=O)NCc1ccc(-c2c3ncn(CC4(O)CCN(C(=O)C[C@@H](C)c5ccccc5)CC4)c(=O)c3nn2C)cc1` [Example 194, (R)-Ethyl 4-(6-((4-hydroxy-1-(3-phenylbutanoyl)piperidin-4-yl)methyl)-2-methyl-7-oxo-6,7-dihydro-2H-pyrazolo[4,3-d]pyrimidin-3-yl)benzylcarbamate], below 250 nM; for `Cn1nc2c(=O)n(CC3(O)CCN(C(=O)C[C@H](c4ccccc4)C(F)(F)F)CC3)cnc2c1-c1ccc(CN2CCOCC2)cc1` [Example 137, (R)-6-((4-Hydroxy-1-(4,4,4-trifluoro-3-phenylbutanoyl)piperidin-4-yl)methyl)-2-methyl-3-(4-(morpholinomethyl)phenyl)-2H-pyrazolo[4,3-d]pyrimidin-7(6H)-one], below 250 nM.
In the case of `C[C@H](CC(=O)N1CCC(O)(Cn2cnc(N3CCOCC3)cc2=O)CC1)c1ccccc1` [Example 100, (R)-3-((4-Hydroxy-1-(3-phenylbutanoyl)piperidin-4-yl)methyl)-6-morpholinopyrimidin-4(3H)-one], the IC50 was in the range of 1000 to 200000 nM.
Still for that read-out and setting: for `C[C@H](CC(=O)N1CCC(O)(Cn2cnc(N3CC4CCOC4C3)cc2=O)CC1)c1ccccc1` (stereo partly drawn) [Example 153, 3-((4-hydroxy-1-((R)-3-phenylbutanoyl)piperidin-4-yl)methyl)-6-(tetrahydro-2H-furo[2,3-c]pyrrol-5(3H)-yl)pyrimidin-4(3H)-one] the value was 1000 to 200000 nM.
Turning to `Cc1nn(C)cc1Nc1cc(=O)n(CC2(O)CCN(C(=O)C[C@@H](C)c3ccccc3)CC2)cn1` [Example 170, (R)-6-((1,3-dimethyl-1H-pyrazol-4-yl)amino)-3-((4-hydroxy-1-(3-phenylbutanoyl)piperidin-4-yl)methyl)pyrimidin-4(3H)-one], the IC50 lay in the range of 1000 to 200000 nM.

The same assay, now with this note: USP7 IC50, Table 4, biochemical assay; average of at least duplicate experiments.
As to `C[C@H](CC(=O)N1CCC(O)(Cn2cnc(N3CCC4(CCNC4)CC3)cc2=O)CC1)c1ccccc1` [Example 49, (R)-3-((4-Hydroxy-1-(3-phenylbutanoyl)piperidin-4-yl)methyl)-6-(2,8-diazaspiro[4.5]decan-8-yl)pyrimidin-4(3H)-one hydrochloride], the IC50 lay in the range of 250 to 999 nM.
`C[C@H](CC(=O)N1CCC(O)(Cn2cnc(N3CC4(CCOCC4)C3)cc2=O)CC1)c1ccccc1` [Example 174, (R)-3-((4-hydroxy-1-(3-phenylbutanoyl)piperidin-4-yl)methyl)-6-(7-oxa-2-azaspiro[3.5]nonan-2-yl)pyrimidin-4(3H)-one]: the IC50 fell in the range of 250 to 999 nM.
Same read-out and setting: for `CC(=O)N1CC2(C1)CN(c1cc(=O)n(CC3(O)CCN(C(=O)C[C@@H](C)c4ccccc4)CC3)cn1)C2` [Example 172, (R)-6-(6-acetyl-2,6-diazaspiro[3.3]heptan-2-yl)-3-((4-hydroxy-1-(3-phenylbutanoyl)piperidin-4-yl)methyl)pyrimidin-4(3H)-one] the value was 250 to 999 nM.
